# Measured values: US7645755B2, “Inhibitors of c-fms kinase” (Janssen Pharmaceutical N.V., priority 2004, dated 2010)
# Counter-ions that a name gives are not always drawn.
# Molecular target: c-fms (Homo sapiens, UniProt P07333)
# Test: autophosphorylation, fluorescence polarization competition immunoassay for c-fms inhibition
# Format: biochemical
# Conditions: 10 nM c-fms, 1 mM ATP, 5 mM MgCl2, 2% DMSO, 45 min at room temperature; averages of three independent measurements; read-out: c-fins IC50
# Method: The assay buffer used was 100 mM 4-(2-hydroxyethyl)piperazine 1-ethanesulfonic acid (HEPES), pH 7.5, 1 mM 1,4-dithio-DL-threitol (DTT), 0.01% (v/v) Tween-20. Compounds were diluted in assay buffer containing 4% dimethylsulfoxide (DMSO) just prior to the assay. […] The kinase reaction was initiated by adding 2 μL of 5 mM ATP (Sigma) in assay buffer. The final concentrations in the assay were 10 nM c-fms, 1 mM ATP, 5 mM MgCl2, 2% DMSO. Control reactions were ran in each plate: in positive and negative control wells, assay buffer (made 4% in DMSO) was substituted for the compound; in addition, positive control wells received 1.2 μL of 50 mM ethylenediaminetetraaceticacid (EDTA).
# The plates were incubated at room temperature for 45 min. At the end of the incubation, the reaction was quenched with 1.2 μL of 50 mM EDTA (EDTA was not added to the positive control wells at this point; see above). Following a 5-min incubation, each well received 10 μL of a 1:1:3 mixture of anti-phosphotyrosine antibody, 10X, PTK green tracer, 10X (vortexed), FP dilution buffer, respectively (all from PanVera, cat. # P2837). The plate was covered, incubated for 30 min at room temperature and the fluorescence polarization was read on the Analyst. […] The reported IC50 values are averages of three independent measurements.
# Chain of c-fms (P07333 20-972): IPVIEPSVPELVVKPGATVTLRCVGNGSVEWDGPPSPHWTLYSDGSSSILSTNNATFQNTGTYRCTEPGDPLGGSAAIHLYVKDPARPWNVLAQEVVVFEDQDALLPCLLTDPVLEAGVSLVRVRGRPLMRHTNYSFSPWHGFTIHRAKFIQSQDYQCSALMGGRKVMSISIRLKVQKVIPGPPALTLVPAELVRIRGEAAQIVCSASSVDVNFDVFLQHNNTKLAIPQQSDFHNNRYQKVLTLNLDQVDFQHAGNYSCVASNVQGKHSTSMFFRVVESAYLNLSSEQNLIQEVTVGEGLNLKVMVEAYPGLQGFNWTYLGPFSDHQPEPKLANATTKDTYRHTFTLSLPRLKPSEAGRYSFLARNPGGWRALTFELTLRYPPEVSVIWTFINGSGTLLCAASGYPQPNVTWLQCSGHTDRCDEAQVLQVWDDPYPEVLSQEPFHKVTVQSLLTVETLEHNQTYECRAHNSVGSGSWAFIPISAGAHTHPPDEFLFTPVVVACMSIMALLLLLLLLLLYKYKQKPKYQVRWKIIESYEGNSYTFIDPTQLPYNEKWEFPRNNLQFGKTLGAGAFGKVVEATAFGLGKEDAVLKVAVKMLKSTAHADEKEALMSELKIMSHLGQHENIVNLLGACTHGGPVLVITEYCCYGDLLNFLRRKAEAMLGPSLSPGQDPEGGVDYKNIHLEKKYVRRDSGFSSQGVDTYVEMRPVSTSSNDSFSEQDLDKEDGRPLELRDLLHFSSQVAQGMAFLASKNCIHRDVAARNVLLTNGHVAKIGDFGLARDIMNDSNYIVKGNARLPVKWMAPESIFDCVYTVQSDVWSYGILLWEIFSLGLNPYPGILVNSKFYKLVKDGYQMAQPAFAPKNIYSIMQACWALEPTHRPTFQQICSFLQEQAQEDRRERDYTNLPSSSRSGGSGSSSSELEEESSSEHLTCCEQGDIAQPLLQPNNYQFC
row,IC50 [nM],Compound
1,950,"Cc1cscc1-c1cc(N2CCN(C)CC2)ccc1NC(=O)c1ccc(C#N)o1 [Example 5, 5-Cyano-furan-2-carboxylic acid [4-(4-methyl-piperazin-1-yl)-2-(4-methyl-thiophen-3-yl)-phenyl]-amide]"
2,630,"Cc1ccccc1-c1cc(N2CCN(C)CC2)ccc1NC(=O)c1ccc(C#N)o1 [Example 9, 5-Cyano-furan-2-carboxylic acid [2 ′-methyl-5-(4-methyl-piperazin-1-yl)-biphenyl-2-yl]-amide]"
3,900,"CN1CCN(c2ccc(NC(=O)c3ccc(C#N)o3)c(-c3ccccc3F)c2)CC1 [Example 10, 5-Cyano-furan-2-carboxylic acid [2′-fluoro-5-(4-methyl-piperazin-1-yl)-biphenyl-2-yl]-amide]"
4,60,CN1CCN(c2ccc(NC(=O)c3ccc(C#N)o3)c(C3=CCOCC3)c2)CC1 [Example 12]
5,12,"N#Cc1c[nH]c(C(=O)Nc2ccc(C3CCNCC3)cc2C2=CCCCC2)c1 [Example 13, 4-Cyano-1H-pyrrole-2-carboxylic acid (2-cyclohex-1-enyl-4-piperidin-4-yl-phenyl)-amide trifluoroacetic acid salt]"
6,28,"CC(=O)N1CCC(c2ccc(NC(=O)c3cc(C#N)c[nH]3)c(C3=CCCCC3)c2)CC1 [Example 15, 4-Cyano-1H-pyrrole-2-carboxylic acid [4-(1-acetyl-piperidin-4-yl)-2-cyclohex-1-enyl-phenyl]-amide]"
7,1.4,"CC1CC=C(c2cc(C3CCN(Cc4ccccn4)CC3)ccc2NC(=O)c2nc(C#N)c[nH]2)CC1 (stereo not shown) [Example 22, 4-Cyano-1H-imidazole-2-carboxylic acid [2-(4-methyl-cyclohex-1-enyl)-4-(1-pyridin-2-ylmethyl-piperidin-4-yl)-phenyl]-amide trifluoroacetic acid salt]"
8,6.6,"Cn1ccnc1CN1CCC(c2ccc(NC(=O)c3nc(C#N)c[nH]3)c(C3=CCCC3)c2)CC1 [Example 23, 4-Cyano-1H-imidazole-2-carboxylic acid {2-cyclopent-1-enyl-4-[1-(1-methyl-1H-imidazol-2-ylmethyl)-piperidin-4-yl]-phenyl}-amide trifluoroacetic acid salt]"
9,2.9,"N#Cc1c[nH]c(C(=O)Nc2ccc(C3CCS(=O)(=O)CC3)cc2C2=CCCCC2)n1 [Example 35, 4-Cyano-1H-imidazole-2-carboxylic acid [2-cyclohex-1-enyl-4-(1,1-dioxo-hexahydro-1λ^6-thiopyran-4-yl)-phenyl]-amide]"
10,60,"CC(=O)N1CCC(c2ccc(NC(=O)c3nc(C#N)c[nH]3)c(C3=CCS(=O)(=O)CC3)c2)CC1 [Example 37, 4-Cyano-1H-imidazole-2-carboxylic acid [4-(1-acetyl-piperidin-4-yl)-2-(1,1-dioxo-1,2,3,6-tetrahydro-1λ^6-thiopyran-4-yl)-phenyl]-amide]"
11,1.4,"CNCC(=O)N1CCC(c2ccc(NC(=O)c3nc(C#N)c[nH]3)c(C3=CCCCC3)c2)CC1 [Example 38b, 4-Cyano-1H-imidazole-2-carboxylic acid {2-cyclohex-1-enyl-4-[1-(2-methylamino-acetyl)-piperidin-4-yl]-phenyl}-amide]"
12,60,"O=C(Nc1ccc(C2CCNCC2)cc1C1=CCCCC1)c1nnc[nH]1 [Example 49, 4H-[1,2,4]-triazole-3-carboxylic acid (2-cyclohex-1-enyl-4-piperidin-4-yl-phenyl)-amide bis trifluoroacetic acid salt]"
13,60,"O=C(Nc1ccc(C2CCNCC2)cc1C1=CCCCC1)c1nnc(Cl)[nH]1 [Example 50, 5-Chloro-4H-[1,2,4]-triazole-3-carboxylic acid (2-cyclohex-1-enyl-4-piperidin-4-yl-phenyl)-amide trifluoroacetic acid salt]"
14,0.2,"C[C@@H]1CC(c2ccc(NC(=O)c3ncc(C#N)[nH]3)c(C3=CCCCC3)c2)C[C@H](C)N1 (stereo partly drawn) [Example 51a, 5-Cyano-1H-imidazole-2-carboxylic acid [2-cyclohex-1-enyl-4-(cis-2,6-dimethyl-piperidin-4-yl)-phenyl]-amide bis trifluoroacetic acid salt]"
15,0.4,"C[C@H]1CC(c2ccc(NC(=O)c3ncc(C#N)[nH]3)c(C3=CCCCC3)c2)C[C@H](C)N1 (stereo partly drawn) [Example 51b, 5-cyano-1H-imidazole-2-carboxylic acid [2-cyclohex-1-enyl-4-(trans-2,6-dimethyl-piperidin-4-yl)-phenyl]-amide bis trifluoroacetic acid salt]"
16,5.3,"CON1CCC(c2ccc(NC(=O)c3ncc(C#N)[nH]3)c(C3=CCCCC3)c2)CC1 [Example 53, 5-Cyano-1H-imidazole-2-carboxylic acid [2-cyclohex-1-enyl-4-(1-methoxy-piperidin-4-yl)-phenyl]-amide trifluoroacetic acid salt]"
17,0.8,"CC1(C)CC=C(c2nc(C3CCNCC3)ccc2NC(=O)c2nc(C#N)c[nH]2)CC1 [Example 54, 4-Cyano-1H-imidazole-2-carboxylic acid [6-(4,4-dimethyl-cyclohex-1-enyl)-1′,2′,3′,4′,5′,6′-hexahydro-[2,4′]bipyridinyl-5-yl]-amide trifluoroacetic acid salt]"
18,0.7,"CN(C)CC(=O)N1CCC(c2ccc(NC(=O)c3nc(C#N)c[nH]3)c(C3=CCC(C)(C)CC3)n2)CC1 [Example 55, 4-Cyano-1H-imidazole-2-carboxylic acid [1′-(2-dimethylamino-acetyl)-6-(4,4-dimethyl-cyclohex-1-enyl)-1′,2′,3′,4′,5′,6′-hexahydro-[2,4′]bipyridinyl-5-yl]-amide trifluoroacetic acid salt]"
19,1,"CC1(C)CC=C(c2nc(C3CCN(CCS(C)(=O)=O)CC3)ccc2NC(=O)c2nc(C#N)c[nH]2)CC1 [Example 56, 4-Cyano-1H-imidazole-2-carboxylic acid [6-(4,4-dimethyl-cyclohex-1-enyl)-1′-(2-methanesulfonyl-ethyl)-1′,2′,3′,4′,5′,6′-hexhydro-[2,4′]bipyridinyl-5-yl]-amide trifluoroacetic acid salt]"
20,7,"CS(=O)(=O)CCN1CCC(c2ccc(NC(=O)c3nc(C#N)c[nH]3)c(C3=CCCCC3)n2)CC1 [Example 58, 5-Cyano-1H-imidazole-2-carboxylic acid [6-cyclohex-1-enyl-1′-(2-methanesulfonyl-ethyl)-1′,2′,3′,4′,5′,6′-hexahydro-[2,4′]bipyridinyl-5-yl]-amide]"

row,Compound,IC50 [nM]
1,"N#Cc1c[nH]c(C(=O)Nc2ccc(C3CCNCC3)cc2C2=CCS(=O)(=O)CC2)n1 [Example 36, 4-Cyano-1H-imidazole-2-carboxylic acid [2-(1,1-dioxo-1,2,3,6-tetrahydro-1λ^6-thiopyran-4-yl)-4-piperidin-4-yl-phenyl]-amide trifluoroacetic acid salt]",60

# Same assay, conditions: read-out: c-fins IC50
row,IC50 [nM],Compound
1,470,"Cc1ccsc1-c1cc(N2CCN(C)CC2)ccc1NC(=O)c1ccc(C#N)o1 [Example 4, 5-Cyano-furan-2-carboxylic acid [4-(4-methyl-piperazin-1-yl)-2-(3-methyl-thiophen-2-yl)-phenyl]-amide]"
